{
  "source": "ChEMBL document CHEMBL4725449",
  "about": "“Brain Penetrable Inhibitors of Ceramide Galactosyltransferase for the Treatment of Lysosomal Storage Disorders” (ACS Med Chem Lett, 2020)",
  "key": {"[1]": {"biological_target": "T1, 2-hydroxyacylsphingosine 1-beta-galactosyltransferase (Homo sapiens, UniProt Q16880)", "T1 sequence (Q16880 whole entry)": "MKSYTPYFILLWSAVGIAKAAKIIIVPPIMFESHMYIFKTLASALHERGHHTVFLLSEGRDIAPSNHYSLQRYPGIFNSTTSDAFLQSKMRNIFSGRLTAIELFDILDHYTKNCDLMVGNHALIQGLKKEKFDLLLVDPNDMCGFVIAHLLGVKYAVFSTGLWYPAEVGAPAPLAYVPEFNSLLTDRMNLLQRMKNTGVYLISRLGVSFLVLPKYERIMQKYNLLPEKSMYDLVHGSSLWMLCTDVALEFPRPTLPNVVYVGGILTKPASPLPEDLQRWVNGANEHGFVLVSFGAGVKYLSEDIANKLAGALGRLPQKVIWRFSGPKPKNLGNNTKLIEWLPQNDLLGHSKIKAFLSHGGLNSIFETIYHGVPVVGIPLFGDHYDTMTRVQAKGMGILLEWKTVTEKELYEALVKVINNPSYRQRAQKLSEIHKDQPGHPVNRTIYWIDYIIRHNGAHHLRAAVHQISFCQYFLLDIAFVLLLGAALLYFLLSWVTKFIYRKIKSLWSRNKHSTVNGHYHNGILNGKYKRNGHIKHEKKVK", "assay": "Inhibition of UGT8 in human OE19 cells assessed as redcution in SFT accumulation measured after 72 hrs by LC-MS/MS analysis", "format": "cell-based"}, "[2]": {"assay": "Apparent permeability of the compound at pH 6.5 to 7.4 by PAMPA", "format": "ADME"}, "[3]": {"assay": "Drug uptake in C57BL/6 mouse brain at 3 mg/kg, iv measured at 1 hr", "format": "ADME, organism-based", "details": "read-out: Drug uptake"}, "[4]": {"assay": "Ratio of drug concentration in brain to plasma in C57BL/6 mouse measured at 1 hr", "format": "ADME, organism-based", "details": "read-out: BPR"}, "[5]": {"assay": "Clearance in Sprague-Dawley rat at 1 mg/kg, iv", "format": "ADME, organism-based", "details": "in vivo"}, "[6]": {"assay": "Volume of distribution at steady state in Sprague-Dawley rat at 1 mg/kg, iv", "format": "ADME, organism-based", "details": "in vivo, read-out: Vdss"}, "[7]": {"assay": "AUC (0 to last) in Sprague-Dawley rat at 3 mg/kg, po", "format": "ADME, organism-based", "set-up": "time 0 - last, route oral, dose 3 mg/kg", "details": "in vivo"}, "[8]": {"assay": "Cmax in Sprague-Dawley rat at 3 mg/kg, po", "format": "ADME, organism-based", "set-up": "route oral, dose 3 mg/kg", "details": "in vivo"}, "[9]": {"assay": "Tmax in Sprague-Dawley rat at 3 mg/kg, po", "format": "ADME, organism-based", "details": "in vivo"}, "[10]": {"assay": "Oral bioavailability in Sprague-Dawley rat at 3 mg/kg", "format": "ADME, organism-based", "details": "in vivo"}, "[11]": {"assay": "Volume of distribution at steady state in C57BL/6 mouse at 1 mg/kg, iv", "format": "ADME, organism-based", "details": "in vivo, read-out: Vdss"}, "[12]": {"assay": "Cmax in C57BL/6 mouse at 3 mg/kg, po", "format": "ADME, organism-based", "set-up": "route oral, dose 3 mg/kg", "details": "in vivo"}, "[13]": {"assay": "Oral bioavailability in C57BL/6 mouse at 3 mg/kg", "format": "ADME, organism-based", "details": "in vivo"}, "[14]": {"assay": "Half life in Beagle dog at 1 mg/kg, iv", "format": "ADME, organism-based, Canis lupus familiaris", "details": "in vivo"}, "[15]": {"assay": "AUC (0 to last) in Beagle dog at 3 mg/kg, po", "format": "ADME, organism-based, Canis lupus familiaris", "set-up": "time 0 - last, route oral, dose 3 mg/kg", "details": "in vivo"}, "[16]": {"assay": "Cmax in Beagle dog at 3 mg/kg, po", "format": "ADME, organism-based, Canis lupus familiaris", "set-up": "route oral, dose 3 mg/kg", "details": "in vivo"}, "[17]": {"assay": "Tmax in Beagle dog at 3 mg/kg, po", "format": "ADME, organism-based, Canis lupus familiaris", "details": "in vivo"}, "[18]": {"assay": "(§1) In vivo inhibition of GalCer de novo synthesis in adult C57BL/6 mouse kidney assessed as reduction in [13C] galactose incorporation into GalCer at 1 mg/kg, po via gavage treated with compound for 1 hr prior to intraperitoneal injection of [13C] galactose measured after 5 hrs of compound administration relative to control", "format": "functional"}, "[19]": {"assay": "as §1, with “at 10” for “at 1”", "format": "functional"}, "[20]": {"assay": "as §1, with “of SFT” for “of GalCer”, “into SFT” for “into GalCer”, “at 0.3” for “at 1”", "format": "functional"}, "[21]": {"assay": "(§2) In vivo inhibition of GalCer de novo synthesis in PN14 to PN21 days C57BL/6 mouse brain assessed as reduction in [13C] galactose incorporation into GalCer at 10 mg/kg, po bid for 2 days and single dose at day 3 treated 1 hr prior to intraperitoneal injection of [13C] galactose measured after 5 hrs of last dose relative to control", "format": "functional", "details": "C57BL/6, 72 h, time 3 day"}, "[22]": {"assay": "as §2, with “SFT” for “GalCer”, “3” for “10”", "format": "functional", "details": "C57BL/6, 72 h, time 3 day"}, "[23]": {"assay": "as §2, with “SFT” for “GalCer”, “30” for “10”", "format": "functional", "details": "C57BL/6, 72 h, time 3 day"}, "[24]": {"assay": "(§3) In vivo inhibition of SFT de novo synthesis in po dosed PN14 to PN21 days C57BL/6 mouse brain assessed as reduction in [13C] galactose incorporation into SFT administered twice for 2 days and single dose at day 3 treated 1 hr prior to intraperitoneal injection of [13C] galactose measured after 5 hrs of last dose", "format": "functional", "details": "C57BL/6, 72 h, time 3 day"}, "[25]": {"assay": "as §3, with “GalCerde” for “SFT de”, “GalCer” for “SFT”", "format": "functional", "details": "C57BL/6, 72 h, time 3 day"}, "[26]": {"biological_target": "T2, 2-hydroxyacylsphingosine 1-beta-galactosyltransferase (Mus musculus, UniProt Q64676)", "T2 sequence (Q64676 whole entry)": "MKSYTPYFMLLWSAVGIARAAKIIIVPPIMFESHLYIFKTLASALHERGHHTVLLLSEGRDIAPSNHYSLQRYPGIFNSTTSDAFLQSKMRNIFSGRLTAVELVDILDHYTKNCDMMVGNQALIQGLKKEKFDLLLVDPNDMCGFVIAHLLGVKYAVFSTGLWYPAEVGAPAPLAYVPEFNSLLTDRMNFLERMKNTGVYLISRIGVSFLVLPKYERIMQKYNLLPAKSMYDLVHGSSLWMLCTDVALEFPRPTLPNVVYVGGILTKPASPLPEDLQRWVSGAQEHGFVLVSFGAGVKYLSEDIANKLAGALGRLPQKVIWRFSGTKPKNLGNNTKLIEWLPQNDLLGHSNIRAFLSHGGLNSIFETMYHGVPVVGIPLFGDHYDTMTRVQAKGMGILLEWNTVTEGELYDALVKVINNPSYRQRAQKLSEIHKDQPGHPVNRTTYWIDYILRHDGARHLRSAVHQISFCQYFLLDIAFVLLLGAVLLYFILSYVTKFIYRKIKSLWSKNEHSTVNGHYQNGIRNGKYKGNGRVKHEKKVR", "assay": "Inhibition of mouse UGT8 assessed as redcution in SFT accumulation"}, "[27]": {"biological_target": "T2, 2-hydroxyacylsphingosine 1-beta-galactosyltransferase", "assay": "Inhibition of mouse UGT8 assessed as redcution in GalCer accumulation"}, "[28]": {"assay": "Protein binding in C57BL/6 mouse plasma", "format": "ADME, cell-free", "details": "read-out: PPB"}},
  "data": [
    {"smiles": "CNC(=O)c1csc2c(C(F)(F)F)cc(N3CCC(OC(=O)N[C@@H](C)COC(F)(F)F)CC3)nc12", "values": [
      {"measurement": "IC50", "setting": "[1]", "result": 0.2, "unit": "nM"},
      {"measurement": "Papp", "setting": "[2]", "result": "> 80", "unit": "×10⁻⁶ cm/s"},
      {"measurement": "concentration at 1 h", "setting": "[3]", "result": 148, "unit": "ng/mL"},
      {"measurement": "Kp at 1 h", "setting": "[4]", "result": 0.46},
      {"measurement": "clearance", "setting": "[5]", "result": 6.52, "unit": "mL/min/kg"},
      {"measurement": "Vd", "setting": "[6]", "result": 1.52, "unit": "L/kg"},
      {"measurement": "AUC(0-t)", "setting": "[7]", "result": 3060, "unit": "ng·h/mL"},
      {"measurement": "Cmax", "setting": "[8]", "result": 405, "unit": "ng/mL"},
      {"measurement": "Tmax", "setting": "[9]", "result": 0.83, "unit": "h"},
      {"measurement": "bioavailability", "setting": "[10]", "result": 40, "unit": "%"},
      {"measurement": "Vd", "setting": "[11]", "result": 1.64, "unit": "L/kg"},
      {"measurement": "Cmax", "setting": "[12]", "result": 306, "unit": "ng/mL"},
      {"measurement": "bioavailability", "setting": "[13]", "result": 34, "unit": "%"},
      {"measurement": "half-life", "setting": "[14]", "result": 13.6, "unit": "h"},
      {"measurement": "AUC(0-t)", "setting": "[15]", "result": 4190, "unit": "ng·h/mL"},
      {"measurement": "Cmax", "setting": "[16]", "result": 693, "unit": "ng/mL"},
      {"measurement": "Tmax", "setting": "[17]", "result": 1.33, "unit": "h"},
      {"measurement": "inhibition in vivo at 1 mg/kg", "setting": "[18]", "result": 43, "unit": "%"},
      {"measurement": "inhibition in vivo at 10 mg/kg", "setting": "[19]", "result": 85, "unit": "%"},
      {"measurement": "inhibition in vivo at 0.3 mg/kg", "setting": "[20]", "result": 29, "unit": "%"},
      {"measurement": "inhibition in vivo at 10 mg/kg", "setting": "[21]", "result": 94, "unit": "%"},
      {"measurement": "inhibition in vivo at 3 mg/kg", "setting": "[22]", "result": 92, "unit": "%"},
      {"measurement": "inhibition in vivo at 30 mg/kg", "setting": "[23]", "result": 98, "unit": "%"},
      {"measurement": "ED50", "setting": "[24]", "result": "< 3", "unit": "mg/kg"},
      {"measurement": "ED50", "setting": "[25]", "result": "< 3", "unit": "mg/kg"},
      {"measurement": "IC50", "setting": "[26]", "result": 0.3, "unit": "nM"},
      {"measurement": "IC50", "setting": "[27]", "result": 0.2, "unit": "nM"},
      {"measurement": "fraction unbound", "setting": "[28]", "result": "< 0.01"}
    ]}
  ]
}
